The assay has as its system CEM cells HIV-1 protection, formazan growth assay. The assay is described as follows: NCI AIDS Antiviral Assay. As to conditions: for pIC50: measured here: growth of uninfected CEM cells. An outline of the steps:
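Protection of CEM cells against HIV-1 measured as cell growth via soluble formazan read-out, with five concentrations tested on both infected and uninfected cells; failure to protect may reflect toxicity.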

pEC50, pIC50: −log10 of the molar value. Several values for one entry are separate records, joined by “and”; a condition that tells them apart may be missing. Identical values can stand only once. Activity calls are given as the source filed them.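 Rule for the calls: active = compounds giving half or more protection of infected cells from virus-caused growth loss, again on retest; inactive = the rest.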 Where a SMILES comes first, the peptide text is derived from it.

Experimental findings from PubChem BioAssay AID179 (DTP/NCI, 2004) are described below.

Usually pEC50 stands for the negative decadic logarithm of the EC50, by convention in mol/L. By pIC50 is commonly meant the negative decadic logarithm of the IC50, by convention in mol/L. Low values mean a large IC50, high ones a small IC50. Consider `Cc1ccccc1NC(=O)CSc1nnc(-c2ccc(N=Cc3ccc(Cl)cc3)cc2)o1`, for which the pEC50 was under 3.41 and the negative-log IC50 (pIC50) is 5.25. Take `COc1cc2c(cc1OC)CCN=C2`: the outcome was inactive.

As for `CC(=O)NNc1nc(C)c(C(=O)NNC(=O)C(=O)Nc2nc3ccc([N+](=O)[O-])cc3s2)s1`, the pEC50 was under 3.85 and the pIC50 is 4.48. With `CC(NC(=O)CNC(=O)C(N)CO)C(=O)NC(CCC(N)=O)C(=O)NC(CCC(=O)O)C(=O)NC(C)C(=O)NC(CCCCN)C(=O)NC(CCC(=O)O)C(=O)NC(CCC(N)=O)C(=O)NC(CCCN=C(N)N)C(=O)NC(C(=O)NC(CC(N)=O)C(=O)NC(C)C(=O)NC(Cc1cnc[nH]1)C(=O)NC(CO)C(=O)O)C(C)O` (stereo not drawn) (H-SGAQEAKEQRTNAHS-OH; configuration not given here), the pEC50 is under 4.00 and the negative-log IC50 (pIC50) is under 4.00. In the case of `O=C1CN2C(Cl)(Cl)C2(c2ccccc2)c2cc(Cl)ccc2N1CC1CC1` (stereo not drawn), the pEC50 is under 3.70 and the pIC50 is 4.93. The corresponding values for `COc1cccc(C2N3CCCCC3[C@@H]3c4[nH]c5ccccc5c4CCN23)c1OC` (stereo partly drawn) are under 4.47 and under 4.47.

Regarding `COC(=O)c1cc2c(cc1CC(Cc1ccc3c(c1)CCC3)C(=O)OC)CCC2` (stereo not drawn), the pEC50 was under 3.70 and the pIC50 was 3.90. Taken in the same sequence, the figures for `CC(=O)Oc1ccc(/C=C/C(=O)NCCOC(=O)/C=C/c2ccc(OC(C)=O)c(OC(C)=O)c2)cc1OC(C)=O` were under 4.00 and 4.82.

Take `CCCCCCCCCCCCCCCc1cc(O)ccc1N=O`: the pEC50 was under 3.70 and the negative logarithm of the IC50 (pIC50) was 5.59. The corresponding values for `CSc1nc(C)c2c(n1)N(c1ccc(Cl)cc1)CC2` are under 3.70 and under 3.70. The corresponding values for `O=c1c2cccnc2[nH]c2ccc3scnc3c12` are under 3.70 and under 3.70. Consider `O=C1CCC2(c3ccc(F)cc3)Nc3ccccc3N12` (stereo not drawn), for which the outcome was inactive.

Turning to `CC(=O)C1CCC2[C@@H]3CCC4c5nn(-c6ccccc6)nc5CC[C@]4(C)C3CC[C@]12C` (stereo partly drawn), the outcome was inactive. In the case of `CCCn1c(SC)nc(COC(=O)NC)c1COC(=O)NC`, the pEC50 was under 3.70 and the negative-log IC50 (pIC50) is under 3.70. With `CCCCCCCCCCCCNP(=S)(NCCCCCCCCCCCC)NCCCCCCCCCCCC`, the pEC50 was under 4.00 and the pIC50 was under 4.00. On to `CCOC(=O)n1[nH]c(=O)n(-c2ccccc2)c1=O`, for which the pEC50 is under 3.70 and the negative-log IC50 (pIC50) is under 3.70. In the case of `CC(NC(=O)C(N)CC(=O)O)NC(=O)N1CCCC1` (stereo not drawn), the pEC50 is under 3.70 and the negative-log IC50 (pIC50) is under 3.70.

As for `OCC1C2C=CC(O2)[C@H]1CO` (stereo partly drawn), the result was inactive. `CC1OC(OC2C(O)COC(OC3C(C)OC(OC4C(OC(=O)[C@]56CCC(C)(C)C[C@@H]5C5=CCC7[C@@]8(C)C[C@H](O)[C@H](OC9OC(CO)C(O)C(OC%10OC(CO)C(O)C(O)C%10O)C9O)[C@@](C)(CO)[C@@H]8CC[C@@]7(C)[C@]5(C)CC6)OCC(O)C4O)C(O)C3OC3OCC(O)C(O)C3O)C2O)C(O)C(O)C1O` (stereo partly drawn): the pEC50 was under 4.77 and the negative logarithm of the IC50 (pIC50) is under 4.77. On to `Cc1ccc2c(c1)C(=O)N(CC[P+](c1ccccc1)(c1ccccc1)c1ccccc1)C2=O`, for which the pEC50 was under 3.70 and the pIC50 is 4.51. Taken in the same sequence, the figures for `Clc1ccc(C(Cc2cccc(Cl)c2)c2c(Cl)nc(N3CCNCC3)nc2Cl)cc1` (stereo not drawn) were under 3.70 and 4.76.

`NCCCN(CCCCN(CCCN)Cc1ccccc1)Cc1ccccc1`: the pEC50 is 4.19 and the negative-log IC50 (pIC50) was 4.15. Taken in the same sequence, the figures for `O=C1c2ccccc2C(=O)C1(Br)c1ccccc1` were under 3.70 and under 3.70.

Regarding `S=C(NCc1ccccc1)N/N=C/c1ccccn1`, the pEC50 is under 4.70 and the pIC50 was 6.85. For `OC12COc3ccccc3C1Oc1ccccc1C2` (stereo not drawn), the result was inactive. In the case of `Cc1ccc(NC(=O)CSc2nnc(Cc3ccccc3)o2)c(C)c1`, the pEC50 was under 3.85 and the pIC50 is 3.87. As to `NC(=O)NC1=NCCC(=O)N1CCc1c[nH]c2ccccc12`, the pEC50 was under 3.70 and the pIC50 was 4.91. In the case of `O=C(O)c1cc2ccccc2[nH]c1=O`, the result was inactive.

With `NNC(=O)CC(=O)Nc1ccc(S(=O)(=O)c2ccc(NC(=O)CC(=O)NN)cc2)cc1`, the pEC50 was under 3.70 and the negative-log IC50 (pIC50) was under 3.70. Take `Cc1cc(=NCCCN(C)C)c2ccc3c(ccc4c(=NCCCN(C)C)cc(C)n(O)c43)c2n1O`: the pEC50 was under 3.70 and the negative logarithm of the IC50 (pIC50) was 4.99. Taken in the same sequence, the figures for `CC(=O)Nc1ccc(C(=O)n2[nH]c(C)c(/C=C3\C(=O)C=Cc4ccccc43)c2=O)cc1` were under 4.06 and 4.37. The corresponding values for `COc1ccc(-c2oc3cc(OC)c(OC)c(O)c3c(=O)c2O)cc1O` are under 3.70 and 5.98. The corresponding values for `CC(Oc1ccc(OCC2CCCCC2)cc1)C(=O)N(CCO)CCO` (stereo not drawn) are under 3.16 and 4.35. With `CS(=O)(=O)c1[nH]nc2[nH]c(=O)[nH]c(=O)c12`, the pEC50 was under 3.70 and the pIC50 was under 3.70.

As for `O=C(O)c1c[nH]c2c([N+](=O)[O-])cccc2c1=O`, the pEC50 is under 2.97, the result was inactive and the pIC50 was 5.04. With `Cc1cc2c(cc1Cl)Sc1nccn1S2(=O)=O`, the pEC50 is 4.39 and the negative logarithm of the IC50 (pIC50) was 4.10. Taken in the same sequence, the figures for `O=C(Nc1ccc(C2=NCCN2)cc1)c1ccc(C(=O)Nc2ccc(C3=NCCN3)cc2)c(F)c1` were 3.92 and under 3.70.

Consider `O=C1/C(=C/c2ccc(O)cc2)NC(=S)N1CN1CCCCC1`, for which the pEC50 was under 3.70 and the negative-log IC50 (pIC50) is 4.49.

For `C/C(N=NS(=O)(=O)c1ccc([N+](=O)[O-])cc1)=C1\C=CC=CN1O`, the result was inactive. With `O=C1OC(=O)C2C3CC(C12)C1C3N1S(=O)(=O)c1ccccc1` (stereo not drawn), the pEC50 is under 3.88 and the negative-log IC50 (pIC50) is under 3.88. Take `[C-]#[O+].[C-]#[O+].[C-]#[O+].[C-]#[O+].[C-]#[O+].[C-]#[O+].[Fe].[Fe].c1ccc([P-]c2ccccc2[P-]c2ccccc2)cc1` (stereo not drawn): the pEC50 was under 5.74 and the pIC50 was under 5.74.

As to `Nc1cc(=O)[nH]c(N)n1`, the result was inactive.

In the case of `C=CCC1C(=O)C(C(=O)OC)N2CCc3c([nH]c4ccccc34)C12` (stereo not drawn), the pEC50 was under 3.55 and the negative logarithm of the IC50 (pIC50) is 3.86. Taken in the same sequence, the figures for `COC(=O)NC1(NC(=O)OC)NC(=O)c2cc(OC)c(OC)cc2N1` were under 3.70 and 4.89. `CC1(C)COC(C2Cc3ccccc3C(O)(c3ccccc3)C2)=N1` (stereo not drawn): the pEC50 was under 3.70 and the negative-log IC50 (pIC50) was under 3.70. As for `N#CCC(=O)N/N=C1/C(=O)NC(=O)C(=O)C1c1nc2ccccc2s1` (stereo not drawn), the outcome was inactive.

`Cc1cc2nc3ccc(=[N+](C)C)cc-3sc2cc1N`: the pEC50 was under 3.93 and the negative logarithm of the IC50 (pIC50) is 6.17. Taken in the same sequence, the figures for `CO[C@@H]1/C=C\C=C(/C)C(=O)NC2=CC(=O)C(NCCN(C)C)=C(C[C@@H](C)C[C@@H](OC)[C@@H](O)[C@H](C)/C=C(\C)[C@H]1OC(N)=O)C2=O` were under 5.70 and 6.99. As for `CC/C=C(\C(=C/CC)[N+](=O)[O-])[N+](=O)[O-]`, the pEC50 is under 3.70 and the negative-log IC50 (pIC50) was 5.48.

With `CS/C(C)=N/OC(=O)NCCCCNc1ccc(N=[N+]=[N-])cc1`, the pEC50 is under 3.83 and the pIC50 is 4.46. The corresponding values for `CN1CCC/C1=C1\C(=O)c2cccn2C1=O` are under 3.70 and under 3.70. As to `COc1ccc(CNC(=O)NCn2cc(-c3ccccc3)nn2)cc1`, the pEC50 was under 3.70 and the pIC50 was under 3.70.

On to `COC(=O)[C@H](CCSC)NC(=O)N[C@H](C)c1ccccc1`, for which the pEC50 is under 3.70 and the negative-log IC50 (pIC50) was under 3.70. In the case of `O=[N+]([O-])c1ccc(C[P+](c2ccccc2)(c2ccccc2)c2ccccc2)cc1`, the pEC50 was under 3.70; the negative logarithm of the IC50 (pIC50) was 4.06 and 4.39. Turning to `O=C(NC(N1CCN(c2cc3c(cc2F)c(=O)c(C(=O)O)cn3C2CC2)CC1)(C(F)(F)F)C(F)(F)F)c1ccccc1`, the pEC50 is under 3.70 and the negative-log IC50 (pIC50) was 3.98. As to `O=C1N[C@@H]2C(=C[C@H](O)[C@@H](O)[C@H]2O)c2cc3c(c(O)c21)OCO3`, the outcome was inactive. As for `O=C1CC(c2ccccc2)S(=O)(=O)c2ccccc2N1` (stereo not drawn), the pEC50 is under 3.70 and the pIC50 is under 3.70. Take `O=C(CCCN1CC=C(n2c(=O)[nH]c3ccccc32)CC1)c1cccs1`: the pEC50 is under 3.70 and the pIC50 is 3.92.

In the case of `N#C/C(=C\c1ccc(O)c(O)c1)C(=O)OCc1ccccc1COC(=O)/C(C#N)=C/c1ccc(O)c(O)c1`, the pEC50 is under 3.70 and the pIC50 was 5.06. In the case of `Cc1cc2c(cc1C)[n+](=O)c(C(=O)CC(=O)C(=O)Nc1c(C(C)C)cccc1C(C)C)c(C)n2[O-]`, the pEC50 is under 5.10 and the negative-log IC50 (pIC50) is under 5.10. With `OCC(Cn1cncn1)(c1ccc(F)cc1F)n1cncn1` (stereo not drawn), the pEC50 was under 3.70 and the negative-log IC50 (pIC50) is under 3.70.

Take `C=CCC1(C2=C(C)C(=O)c3ccccc32)CCCS1` (stereo not drawn): the pEC50 was under 3.70 and the negative logarithm of the IC50 (pIC50) was 4.50. The corresponding values for `O=C(CCc1ccc(O)cc1)NCCc1cccc(O)c1` are 4.36 and under 4.00.

In the case of `O=c1oc(-c2ccccc2)cn1-c1ccccc1`, the outcome was inactive. As to `Cc1cccc(NC(=O)CC(=O)N2N=C(N3c4ccccc4Sc4ccccc43)CC2c2ccccc2)c1` (stereo not drawn), the pEC50 was under 3.82 and the pIC50 is under 3.82.

On to `O=C(O)c1ccccc1C(=O)OC1CC2CCC1C2` (stereo not drawn), for which the pEC50 was under 3.70 and the pIC50 was under 3.70. Turning to `O=C(O)c1ccccc1/C=N/NC1=NCCCCN1`, the pEC50 was under 3.70 and the negative-log IC50 (pIC50) is 3.85.

In the case of `CCCCCCCCCC(=O)CC(=O)c1c(O)cccc1O`, the pEC50 was under 4.63 and the pIC50 is under 4.63.

Take `COc1cc2c(cc1O)[C@H](C)C(c1ccccc1OC)O2` (stereo partly drawn): the pEC50 is under 4.18 and the pIC50 was 5.40.
